≈ marks a conversion by molar mass, not a printed value.
Legend:
Format in all cases: cell-based
[1] = system: Fusobacterium nucleatum ATCC10953; experiment: Antibacterial test, propagation by turbidity in broth (Example 1); details: medium containing 0.1 mM or 1.0 mM trifluoromethionine, FIG. 4
Procedure: (§1) 3 ml of GAM broth (Nissui Medical) containing 5 μg/ml of hemin and 1 μg/ml of menadione was separately incubated with one platinum loop each of subcultures of strains Porphyromonas gingivalis W83, ATCC33277 and M1217, and strain Fusobacterium nucleatum ATCC10953, followed by incubation at 37° C. under anaerobic conditions (10% CO2, 10% H2, 80% N2) overnight. The same fresh medium as above was inoculated with the resulting culture in such an amount that an absorbance at 550 nm of the inoculated medium could be about 0.15, followed by incubation under the same condition as above. Furthermore, the above-mentioned strains were incubated in the above-mentioned medium further containing 0.1 mM or 1.0 mM trifluoromethionine. Absorbance at 550 nm of the individual cultures was measured with time to evaluate propagation of bacteria through the turbidity of the medium. Results are shown in FIG. 1 to 4 (A to D), where the results of using the trifluoromethionine-free medium are shown by □ curve, and those of using media containing 0.1 mM and 1.0 mM trifluoromethionine, respectively, are shown by ▪ and ● curves.

[2] = system: Porphyromonas gingivalis W83, ATCC33277 and M1217; experiment: as above; details: medium containing 0.1 mM or 1.0 mM trifluoromethionine, FIGS. 1-3
Procedure: as §1

[3] = system: Actinobacillus actinomycetemcomitans Y4; experiment: as above; details: medium containing 0.1 mM or 1.0 mM trifluoromethionine, FIG. 5
[4] = system: Escherichia coli BL 21; experiment: as above; details: medium containing 0.1 mM or 1.0 mM trifluoromethionine, FIG. 6
[5] = system: Actinobacillus actinomycetemcomitans Y4; experiment: Minimum growth-inhibiting concentration on agar media (Example 2); details: A. actinomycetemcomitans Y4, anaerobic, 37° C., 48-72 hours
Procedure: (§2) 3 ml of GAM broth (Nissui Medical) containing 5 μg/ml of hemin and 1 μg/ml of menadione was separately inoculated with one platinum loop each of subcultures of causative bacteria of periodontal disease, strains Porphyromonas gingivalis W83, W50, ATCC49417 and ATCC33277, strain Actinobacillus actinomycetemcomitans Y4, and strains Fusobacterium nucleatum ATCC10953 and ATCC25586, followed by incubation at 37° C. under anaerobic conditions (10% CO2, 10% H2 and 80% N2) overnight. Then, the resulting cultures were diluted to 10^−8, 10^−6, 10^−4 and 10^−3 to make inoculating bacterial solutions, respectively.
(§3) Agar media containing 400, 200, 100, 50, 25, 10 and 5 μg/ml of TFM, respectively, were prepared and streaked, about 2 cm long, with a platinum loop each of the above-prepared inoculating bacterial solutions, followed by incubation under the same anaerobic conditions as above at 37° C. for 48-72 hours to evaluate growth of the bacteria.

[6] = system: Fusobacterium nucleatum ATCC10953; experiment: as above; details: F. nucleatuium ATCC 10953, anaerobic, 37° C., 48-72 hours
Procedure: as §2, §3

[7] = system: Fusobacterium nucleatum ATCC25586; experiment: as above; details: F. nucleatuium ATCC 25586, anaerobic, 37° C., 48-72 hours
Procedure: as §2, §3

[8] = system: Porphyromonas gingivalis ATCC33277; experiment: as above; details: P. gingivalis ATCC 33277, anaerobic, 37° C., 48-72 hours
Procedure: as §2, §3

[9] = system: Porphyromonas gingivalis ATCC49417; experiment: as above; details: P. gingivalis ATCC 49417, anaerobic, 37° C., 48-72 hours
Procedure: as §2, §3

[10] = system: Porphyromonas gingivalis W50; experiment: as above; details: P. gingivalis W50, anaerobic, 37° C., 48-72 hours
Procedure: as §2, §3

[11] = system: Porphyromonas gingivalis W83; experiment: as above; details: P. gingivalis W83, anaerobic, 37° C., 48-72 hours
Procedure: as §2, §3

[12] = system: S. sanguis ST160; experiment: as above; details: Brain Heart Infusion, 5% CO2
Procedure: as §2, §3
(§4) Streptococcus sobrinus MT8246, Streptococcus sanuis ST160, Streptococcus mutans Xc and Streptococcus salivarius HHT were likewise incubated in Brain Heart Infusion (Difco) in the same manner as above except that the incubation was conducted in the presence of 5% CO2 to evaluate the growth.

[13] = system: Streptococcus mutans Xc; experiment: as above; details: S. mutans Xc; Brain Heart Infusion, 5% CO2
Procedure: as §2, §3, §4

[14] = system: Streptococcus salivarius HHT; experiment: as above; details: S. salivarius HHT; Brain Heart Infusion, 5% CO2
Procedure: as §2, §3, §4

[15] = system: Streptococcus sobrinus MT8246; experiment: as above; details: S. sobrinus MT8246; Brain Heart Infusion, 5% CO2
Procedure: as §2, §3, §4

[16] = system: Enterococcus faecalis ATCC29247; experiment: MIC by agar plate dilution method on standard strains (Example 3)
Procedure: (§5) Drug solutions at a concentration 10 times as high as the maximum applicable concentration were prepared as original solutions of test drugs given in Table 2 (as to solvents used for this purpose, reference should be made also to Table 2). Serial two-fold dilution series of the original solutions were prepared at desired stages, and 1 ml each of the diluted drug solutions was added to 9 ml of media given in Table 3 to prepare drug plates. […] • 1) Bacterial solutions stocked at −80° C. were inoculated on agar media (as to media used, reference should be made to Table 3), and then incubated at 37° C. overnight. When desired, subculturing was conducted once more on the same agar media (by overnight incubation at 37° C.). • 2) Colonies growing on the agar media were sampled by a platinum loop, suspended in liquid media (reference should be made to Table 3) and statically incubated at 37° C. for 18 hours (preculturing). • 3) Preculturing was continued up to McFarland 0.5 (McFarland 0.5=about 10^8 CFU/ml), and then the culture broths were diluted with Muellar Hinton Broth to make 10^6 CFU/ml. 5 μl each of the diluted solutions were inoculated on the above-mentioned drug plates by an inoculator Microplanter. […] Thus, bacterial solutions at about 10^8 CFU/ml can be easily prepared by use of McFarland 0.5. Bacterial solutions at such a turbidity are commercially available, but can be easily prepared.

[17] = system: Haemophilus influenzae ATCC33533; experiment: as above
Procedure: as §5

[18] = system: Streptococcus pneumoniae ATCC6302; experiment: as above
Procedure: as §5

**Q.** For `N[C@@H](CCSC(F)(F)F)C(=O)O` [TFM, Trifluoromethionine], which “antibacterial effect (propagation of bacteria, absorbance at 550 nm)” value (shortened to “antibacterial effect”) [1] is on record?
**A.** remarkable antibacterial effects

**Q.** And the “antibacterial effect” value [2]?
**A.** remarkable antibacterial effects

**Q.** And the “antibacterial effect” value [3]?
**A.** remarkable antibacterial effects

**Q.** And the “antibacterial effect” value [4]?
**A.** failed to show a significant antibacterial effect

**Q.** And the Minimum growth-inhibiting concentration [5]?
**A.** 10 µg/mL

**Q.** What about the Minimum growth-inhibiting concentration [6] of the same compound?
**A.** 25 µg/mL

**Q.** And the Minimum growth-inhibiting concentration [7]?
**A.** 25 µg/mL

**Q.** What about the Minimum growth-inhibiting concentration [8] of the same compound?
**A.** 5 µg/mL

**Q.** What about the Minimum growth-inhibiting concentration [9] of the same compound?
**A.** 5 µg/mL

**Q.** What about the Minimum growth-inhibiting concentration [10] of the same compound?
**A.** 5 µg/mL

**Q.** What about the Minimum growth-inhibiting concentration [11] of the same compound?
**A.** 5 µg/mL

**Q.** And the Minimum growth-inhibiting concentration [12]?
**A.** >400 µg/mL

**Q.** And the Minimum growth-inhibiting concentration [13]?
**A.** >400 µg/mL

**Q.** And the Minimum growth-inhibiting concentration [14]?
**A.** >400 µg/mL

**Q.** What about the Minimum growth-inhibiting concentration [15] of the same compound?
**A.** >400 µg/mL

**Q.** What about the MIC [16] of the same compound?
**A.** >400 µg/mL

**Q.** And the MIC [17]?
**A.** 100 µg/mL (≈ 492 µM)

**Q.** What about the MIC [18] of the same compound?
**A.** >400 µg/mL

Source: US20050175550A1, “Compositions for oral use” (priority 2000, published 2005)
